# According to publication PMC7615656 (European journal of pharmacology, 2010):
# Experiments:
# [1] = target: recombinant rat α5β3γ2 receptors (Rattus norvegicus, UniProt P18508+P19969); test: Two-electrode voltage clamp of GABA-induced chloride currents in Xenopus oocytes; assay type: cell-based; conditions: for efficacy (% GABA EC3): α5β3γ2, ns = not significant
# [2] = target: recombinant rat α5β3γ2F77I receptors (Rattus norvegicus, UniProt P18508+P19969, F115I); test: as above; assay type: cell-based; conditions: for efficacy (% GABA EC3): ns = not significant
# recombinant rat α5β3γ2F77I receptors, sequence (P19969 32-464 limits assumed): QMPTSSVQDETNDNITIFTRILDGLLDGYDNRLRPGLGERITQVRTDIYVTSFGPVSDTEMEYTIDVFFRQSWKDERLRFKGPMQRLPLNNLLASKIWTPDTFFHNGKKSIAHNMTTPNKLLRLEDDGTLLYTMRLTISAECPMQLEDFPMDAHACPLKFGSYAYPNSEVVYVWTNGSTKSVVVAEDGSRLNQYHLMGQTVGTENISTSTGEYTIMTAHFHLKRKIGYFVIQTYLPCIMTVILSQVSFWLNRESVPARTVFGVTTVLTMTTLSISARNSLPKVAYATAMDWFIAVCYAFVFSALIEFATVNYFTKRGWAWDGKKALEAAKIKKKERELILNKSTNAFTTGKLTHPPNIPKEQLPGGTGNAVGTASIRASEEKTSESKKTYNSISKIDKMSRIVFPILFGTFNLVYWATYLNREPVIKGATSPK
# recombinant rat α5β3γ2F77I receptors, sequence (P63079 26-473 partner): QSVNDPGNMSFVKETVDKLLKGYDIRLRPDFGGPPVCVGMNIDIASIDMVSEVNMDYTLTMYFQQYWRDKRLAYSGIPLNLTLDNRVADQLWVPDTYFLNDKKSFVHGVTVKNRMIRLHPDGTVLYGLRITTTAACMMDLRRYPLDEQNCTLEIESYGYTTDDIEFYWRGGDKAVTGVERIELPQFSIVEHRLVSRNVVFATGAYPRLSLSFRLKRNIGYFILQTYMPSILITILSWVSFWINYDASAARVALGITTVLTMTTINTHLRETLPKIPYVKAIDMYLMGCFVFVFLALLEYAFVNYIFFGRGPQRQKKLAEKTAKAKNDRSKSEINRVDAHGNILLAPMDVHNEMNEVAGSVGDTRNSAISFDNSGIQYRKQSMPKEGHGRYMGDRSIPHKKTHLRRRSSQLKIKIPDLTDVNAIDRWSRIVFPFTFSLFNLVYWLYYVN
# recombinant rat α5β3γ2F77I receptors, sequence (P18508 39-466 F115I): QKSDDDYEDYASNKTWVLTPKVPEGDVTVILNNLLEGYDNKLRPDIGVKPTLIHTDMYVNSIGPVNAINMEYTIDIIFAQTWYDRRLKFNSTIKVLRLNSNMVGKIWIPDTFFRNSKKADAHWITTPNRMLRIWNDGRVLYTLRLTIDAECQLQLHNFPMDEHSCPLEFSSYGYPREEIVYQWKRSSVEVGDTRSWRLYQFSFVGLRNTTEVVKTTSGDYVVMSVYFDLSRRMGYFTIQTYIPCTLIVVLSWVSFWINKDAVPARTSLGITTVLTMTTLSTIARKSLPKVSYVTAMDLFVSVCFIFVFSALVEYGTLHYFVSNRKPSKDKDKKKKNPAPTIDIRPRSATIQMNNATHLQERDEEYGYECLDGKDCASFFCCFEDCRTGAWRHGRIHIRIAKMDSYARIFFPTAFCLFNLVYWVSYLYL
# [3] = target: recombinant rat α2β3γ2F77I receptors (Rattus norvegicus, UniProt P18508+P23576, F115I); test: as above; assay type: cell-based; conditions: for efficacy (% GABA EC3): ns = not significant
# [4] = target: recombinant rat α4β3γ2 receptors (Rattus norvegicus, UniProt P18508+P28471); test: as above; assay type: cell-based; conditions: α4β3γ2; for efficacy (% GABA EC3): ns = not significant; for maximal effect on GABA-induced chloride flux (GABA EC3), % of control current: control current = 100%
# recombinant rat α4β3γ2 receptors, sequence (P28471 36-552): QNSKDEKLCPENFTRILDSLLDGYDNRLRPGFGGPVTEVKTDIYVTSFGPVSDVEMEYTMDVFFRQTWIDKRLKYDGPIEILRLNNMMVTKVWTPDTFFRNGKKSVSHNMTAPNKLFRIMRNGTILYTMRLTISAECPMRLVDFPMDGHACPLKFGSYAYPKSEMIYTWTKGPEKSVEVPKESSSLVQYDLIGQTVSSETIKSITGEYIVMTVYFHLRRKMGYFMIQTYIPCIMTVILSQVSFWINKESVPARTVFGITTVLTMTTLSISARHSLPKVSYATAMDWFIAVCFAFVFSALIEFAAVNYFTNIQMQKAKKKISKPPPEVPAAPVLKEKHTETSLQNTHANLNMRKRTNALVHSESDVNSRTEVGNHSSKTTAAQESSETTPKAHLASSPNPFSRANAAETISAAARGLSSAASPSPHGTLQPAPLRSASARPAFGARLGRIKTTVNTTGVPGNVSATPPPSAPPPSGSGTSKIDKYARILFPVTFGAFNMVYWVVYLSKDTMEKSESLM
# recombinant rat α4β3γ2 receptors, sequence (P63079 26-473 partner): as the sequence (P63079 26-473 partner) above
# recombinant rat α4β3γ2 receptors, sequence (P18508 39-466): as the sequence (P18508 39-466 F115I) above, with I77F counted along it
# [5] = target: recombinant rat α3β3γ2F77I receptors (Rattus norvegicus, UniProt P18508+P20236, F115I); test: as above; assay type: cell-based; conditions: for efficacy (% GABA EC3): ns = not significant
# [6] = target: recombinant rat α1β3γ2 receptors (Rattus norvegicus, UniProt P18508+P62813); test: as above; assay type: cell-based; conditions: for efficacy (% GABA EC3): α1β3γ2, ns = not significant
# [7] = target: recombinant rat α2β3γ2 receptors (Rattus norvegicus, UniProt P18508+P23576); test: as above; assay type: cell-based; conditions: α2β3γ2; for efficacy (% GABA EC3): ns = not significant
# [8] = target: recombinant rat α1β3γ2F77I receptors (Rattus norvegicus, UniProt P18508+P62813, F115I); test: as above; assay type: cell-based; conditions: for efficacy (% GABA EC3): ns = not significant
# [9] = target: recombinant rat α6β3γ2 receptors (Rattus norvegicus, UniProt P18508+P30191); test: as above; assay type: cell-based; conditions: α6β3γ2; for efficacy (% GABA EC3): ns = not significant; for maximal effect on GABA-induced chloride flux (GABA EC3), % of control current: control current = 100%
# [10] = target: recombinant rat α3β3γ2 receptors (Rattus norvegicus, UniProt P18508+P20236); test: as above; assay type: cell-based; conditions: for efficacy (% GABA EC3): α3β3γ2, ns = not significant
# [11] = system: GABAA receptors containing the γ2F77I mutation; test: Modulation of GABA EC3 in receptors containing the γ2F77I mutation; assay type: cell-based, rat; conditions: GABAA receptors containing the γ2F77I mutation
# [12] = target: recombinant rat α4β3γ2F77I receptors (Rattus norvegicus, UniProt P18508+P28471, F115I); test: Two-electrode voltage clamp of GABA-induced chloride currents in Xenopus oocytes; assay type: cell-based; conditions: 10 μM, ns = not significant
# [13] = read-out: efficacy (% GABA EC3)
# recombinant rat α5β3γ2 receptors, sequence (P19969 32-464 limits assumed): as the sequence (P19969 32-464 limits assumed) above
# recombinant rat α5β3γ2 receptors, sequence (P63079 26-473 partner): as the sequence (P63079 26-473 partner) above
# recombinant rat α5β3γ2 receptors, sequence (P18508 39-466): as the sequence (P18508 39-466 F115I) above, with I77F counted along it
compound,measurement,setting,value
"CNC(=O)c1cc2c(cn1)[nH]c1ccccc12 [FG7142, N-methyl-β-carboline-3-carboxamide]",efficacy (% GABA EC3),[1]; 100 nM,ns
same,efficacy (% GABA EC3),[1]; 1 μM,ns
same,activity at 10 µM,[1]; [13],84 ± 5%
same,activity at 0.1 µM,[2]; [13],111 ± 2%
same,activity at 1 µM,[2]; [13],112 ± 4%
same,activity at 10 µM,[2]; [13],122 ± 4%
same,efficacy (% GABA EC3),"[3]; 100 nM, α2β3γ2F77I",ns
same,efficacy (% GABA EC3),"[3]; 1 μM, α2β3γ2F77I",ns
same,activity at 10 µM,[3]; [13],117 ± 4%
same,efficacy (% GABA EC3),[4]; 100 nM,ns
same,efficacy (% GABA EC3),[4]; 1 μM,ns
same,efficacy (% GABA EC3),[4]; 10 μM,ns
same,"maximal effect on GABA-induced chloride flux (GABA EC3), % of control current",[4],did not significantly influence
same,efficacy (% GABA EC3),"[5]; 100 nM, α3β3γ2F77I",ns
same,activity at 1 µM,[5]; [13],115 ± 5%
same,activity at 10 µM,[5]; [13],126 ± 6%
same,efficacy (% GABA EC3),[6]; 100 nM,ns
same,activity at 1 µM,[6]; [13],88 ± 5%
same,activity at 10 µM,[6]; [13],92 ± 4%
same,efficacy (% GABA EC3),[7]; 100 nM,ns
same,efficacy (% GABA EC3),[7]; 1 μM,ns
same,efficacy (% GABA EC3),[7]; 10 μM,ns
same,"maximal effect on GABA-induced chloride flux (GABA EC3), % of control current",[7]; control current = 100%,the reduction was not significant
same,activity at 0.1 µM,[8]; [13],107 ± 1%
same,activity at 1 µM,[8]; [13],111 ± 1%
same,activity at 10 µM,[8]; [13],124 ± 3%
same,efficacy (% GABA EC3),[9]; 100 nM,ns
same,efficacy (% GABA EC3),[9]; 1 μM,ns
same,efficacy (% GABA EC3),[9]; 10 μM,ns
same,"maximal effect on GABA-induced chloride flux (GABA EC3), % of control current",[9],did not significantly influence
same,efficacy (% GABA EC3),[10]; 100 nM,ns
same,activity at 1 µM,[10]; [13],95 ± 2%
same,activity at 10 µM,[10]; [13],91 ± 2%
same,maximum stimulation of the GABA-induced current,[11],126 ± 6%
"CCc1c(C(=O)OC)ncc2[nH]c3cc(OC)c(OC)cc3c12 [DMCM, methyl-6,7-dimethoxy-4-ethyl-β-carboline-3-carboxylate]",efficacy (% GABA EC3),[12],155 ± 9 % GABA EC3
same,efficacy (% GABA EC3),[1]; 10 nM,53 ± 4 % GABA EC3
same,efficacy (% GABA EC3),[1]; 100 nM,52 ± 5 % GABA EC3
same,efficacy (% GABA EC3),[1]; 1 μM,56 ± 6 % GABA EC3
same,efficacy (% GABA EC3),[1]; 10 μM,145 ± 14 % GABA EC3
same,efficacy (% GABA EC3),"[2]; 10 nM, α5β3γ2F77I",ns
same,efficacy (% GABA EC3),"[2]; 100 nM, α5β3γ2F77I",ns
same,efficacy (% GABA EC3),"[2]; 1 μM, α5β3γ2F77I",ns
same,efficacy (% GABA EC3),"[2]; 10 μM, α5β3γ2F77I",211 ± 40 % GABA EC3
same,efficacy (% GABA EC3),"[3]; 10 nM, α2β3γ2F77I",103 ± 1 % GABA EC3
same,efficacy (% GABA EC3),"[3]; 100 nM, α2β3γ2F77I",111 ± 2 % GABA EC3
same,efficacy (% GABA EC3),"[3]; 1 μM, α2β3γ2F77I",123 ± 1 % GABA EC3
same,efficacy (% GABA EC3),"[3]; 10 μM, α2β3γ2F77I",283 ± 17 % GABA EC3
same,efficacy (% GABA EC3),[4]; 10 nM,ns
same,efficacy (% GABA EC3),[4]; 100 nM,77 ± 1 % GABA EC3
same,efficacy (% GABA EC3),[4]; 1 μM,88 ± 2 % GABA EC3
same,efficacy (% GABA EC3),[4]; 10 μM,155 ± 18 % GABA EC3
same,efficacy (% GABA EC3),"[5]; 10 nM, α3β3γ2F77I",ns
same,efficacy (% GABA EC3),"[5]; 100 nM, α3β3γ2F77I",ns
same,efficacy (% GABA EC3),"[5]; 1 μM, α3β3γ2F77I",126 ± 5 % GABA EC3
same,efficacy (% GABA EC3),"[5]; 10 μM, α3β3γ2F77I",281 ± 26 % GABA EC3
same,efficacy (% GABA EC3),[6]; 10 nM,87 ± 8 % GABA EC3
same,efficacy (% GABA EC3),[6]; 100 nM,79 ± 11 % GABA EC3
same,efficacy (% GABA EC3),[6]; 1 μM,ns
same,efficacy (% GABA EC3),[6]; 10 μM,232 ± 54 % GABA EC3
same,efficacy (% GABA EC3),[7]; 10 nM,71 ± 7 % GABA EC3
same,efficacy (% GABA EC3),[7]; 100 nM,54 ± 5 % GABA EC3
same,efficacy (% GABA EC3),[7]; 1 μM,54 ± 3 % GABA EC3
same,efficacy (% GABA EC3),[7]; 10 μM,ns
same,efficacy (% GABA EC3),"[8]; 10 nM, α1β3γ2F77I",ns
same,efficacy (% GABA EC3),"[8]; 100 nM, α1β3γ2F77I",ns
same,efficacy (% GABA EC3),"[8]; 1 μM, α1β3γ2F77I",123 ± 3 % GABA EC3
same,efficacy (% GABA EC3),"[8]; 10 μM, α1β3γ2F77I",269 ± 3 % GABA EC3
same,efficacy (% GABA EC3),[9]; 10 nM,ns
same,efficacy (% GABA EC3),[9]; 100 nM,118 ± 9 % GABA EC3
same,efficacy (% GABA EC3),[9]; 1 μM,189 ± 21 % GABA EC3
same,efficacy (% GABA EC3),[9]; 10 μM,353 ± 22 % GABA EC3
same,efficacy (% GABA EC3),[10]; 10 nM,78 ± 1 % GABA EC3
same,efficacy (% GABA EC3),[10]; 100 nM,69 ± 1 % GABA EC3
same,efficacy (% GABA EC3),[10]; 1 μM,75 ± 3 % GABA EC3
same,efficacy (% GABA EC3),[10]; 10 μM,185 ± 15 % GABA EC3
"CN1C(=O)CN=C(c2ccccc2)c2cc(Cl)ccc21 [Diazepam, 7-chloro-1,3-dihydro-1-methyl-5-phenyl-2H-1,4-benzodiazepin-2-one]",efficacy (% GABA EC3),[1]; 100 nM,274 ± 16 % GABA EC3
same,efficacy (% GABA EC3),[1]; 1 μM,342 ± 21 % GABA EC3
same,efficacy (% GABA EC3),[1]; 10 μM,321 ± 14 % GABA EC3
same,efficacy (% GABA EC3),"[2]; 100 nM, α5β3γ2F77I",135 ± 7 % GABA EC3
same,efficacy (% GABA EC3),"[2]; 1 μM, α5β3γ2F77I",170 ± 4 % GABA EC3
same,efficacy (% GABA EC3),"[2]; 10 μM, α5β3γ2F77I",154 ± 2 % GABA EC3
same,efficacy for enhancing GABA EC3 in receptors containing the γ2F77I mutation,[2]; α5β3γ2F77I,154 ± 2%
same,efficacy (% GABA EC3),"[3]; 100 nM, α2β3γ2F77I",181 ± 1 % GABA EC3
same,efficacy (% GABA EC3),"[3]; 1 μM, α2β3γ2F77I",265 ± 4 % GABA EC3
same,efficacy (% GABA EC3),"[3]; 10 μM, α2β3γ2F77I",278 ± 6 % GABA EC3
same,efficacy for enhancing GABA EC3 in receptors containing the γ2F77I mutation,[3]; α2β3γ2F77I,278 ± 6%
same,efficacy (% GABA EC3),[4]; 1 μM,ns
same,efficacy (% GABA EC3),[4]; 10 μM,ns
same,"maximal effect on GABA-induced chloride flux (GABA EC3), % of control current",[4],did not stimulate
same,efficacy (% GABA EC3),"[5]; 100 nM, α3β3γ2F77I",166 ± 17 % GABA EC3
same,efficacy (% GABA EC3),"[5]; 1 μM, α3β3γ2F77I",263 ± 39 % GABA EC3
same,efficacy (% GABA EC3),"[5]; 10 μM, α3β3γ2F77I",272 ± 36 % GABA EC3
same,efficacy for enhancing GABA EC3 in receptors containing the γ2F77I mutation,[5]; α3β3γ2F77I,272 ± 36%
same,efficacy (% GABA EC3),[6]; 100 nM,239 ± 23 % GABA EC3
same,efficacy (% GABA EC3),[6]; 1 μM,314 ± 29 % GABA EC3
same,efficacy (% GABA EC3),[6]; 10 μM,324 ± 22 % GABA EC3
same,efficacy (% GABA EC3),[7]; 100 nM,426 ± 22 % GABA EC3
same,efficacy (% GABA EC3),[7]; 1 μM,536 ± 26 % GABA EC3
same,efficacy (% GABA EC3),[7]; 10 μM,532 ± 20 % GABA EC3
same,efficacy (% GABA EC3),"[8]; 100 nM, α1β3γ2F77I",162 ± 17 % GABA EC3
same,efficacy (% GABA EC3),"[8]; 1 μM, α1β3γ2F77I",220 ± 21 % GABA EC3
same,efficacy (% GABA EC3),"[8]; 10 μM, α1β3γ2F77I",229 ± 26 % GABA EC3
same,efficacy for enhancing GABA EC3 in receptors containing the γ2F77I mutation,[8]; α1β3γ2F77I,229 ± 26%
same,efficacy (% GABA EC3),[9]; 1 μM,ns
same,efficacy (% GABA EC3),[9]; 10 μM,ns
same,"maximal effect on GABA-induced chloride flux (GABA EC3), % of control current",[9],did not stimulate
same,efficacy (% GABA EC3),[10]; 100 nM,437 ± 32 % GABA EC3
same,efficacy (% GABA EC3),[10]; 1 μM,752 ± 48 % GABA EC3
same,efficacy (% GABA EC3),[10]; 10 μM,738 ± 36 % GABA EC3
